pIC50: −log10 of the molar value.
Molecular target: Histone acetyltransferase p300 (Homo sapiens, UniProt Q09472)
Assay: Inhibition of human p300 expressed in Escherichia coli incubated for 15 mins followed by [3H]acetyl-CoA/histone addition

Chain of Histone acetyltransferase p300 (Q09472 whole entry): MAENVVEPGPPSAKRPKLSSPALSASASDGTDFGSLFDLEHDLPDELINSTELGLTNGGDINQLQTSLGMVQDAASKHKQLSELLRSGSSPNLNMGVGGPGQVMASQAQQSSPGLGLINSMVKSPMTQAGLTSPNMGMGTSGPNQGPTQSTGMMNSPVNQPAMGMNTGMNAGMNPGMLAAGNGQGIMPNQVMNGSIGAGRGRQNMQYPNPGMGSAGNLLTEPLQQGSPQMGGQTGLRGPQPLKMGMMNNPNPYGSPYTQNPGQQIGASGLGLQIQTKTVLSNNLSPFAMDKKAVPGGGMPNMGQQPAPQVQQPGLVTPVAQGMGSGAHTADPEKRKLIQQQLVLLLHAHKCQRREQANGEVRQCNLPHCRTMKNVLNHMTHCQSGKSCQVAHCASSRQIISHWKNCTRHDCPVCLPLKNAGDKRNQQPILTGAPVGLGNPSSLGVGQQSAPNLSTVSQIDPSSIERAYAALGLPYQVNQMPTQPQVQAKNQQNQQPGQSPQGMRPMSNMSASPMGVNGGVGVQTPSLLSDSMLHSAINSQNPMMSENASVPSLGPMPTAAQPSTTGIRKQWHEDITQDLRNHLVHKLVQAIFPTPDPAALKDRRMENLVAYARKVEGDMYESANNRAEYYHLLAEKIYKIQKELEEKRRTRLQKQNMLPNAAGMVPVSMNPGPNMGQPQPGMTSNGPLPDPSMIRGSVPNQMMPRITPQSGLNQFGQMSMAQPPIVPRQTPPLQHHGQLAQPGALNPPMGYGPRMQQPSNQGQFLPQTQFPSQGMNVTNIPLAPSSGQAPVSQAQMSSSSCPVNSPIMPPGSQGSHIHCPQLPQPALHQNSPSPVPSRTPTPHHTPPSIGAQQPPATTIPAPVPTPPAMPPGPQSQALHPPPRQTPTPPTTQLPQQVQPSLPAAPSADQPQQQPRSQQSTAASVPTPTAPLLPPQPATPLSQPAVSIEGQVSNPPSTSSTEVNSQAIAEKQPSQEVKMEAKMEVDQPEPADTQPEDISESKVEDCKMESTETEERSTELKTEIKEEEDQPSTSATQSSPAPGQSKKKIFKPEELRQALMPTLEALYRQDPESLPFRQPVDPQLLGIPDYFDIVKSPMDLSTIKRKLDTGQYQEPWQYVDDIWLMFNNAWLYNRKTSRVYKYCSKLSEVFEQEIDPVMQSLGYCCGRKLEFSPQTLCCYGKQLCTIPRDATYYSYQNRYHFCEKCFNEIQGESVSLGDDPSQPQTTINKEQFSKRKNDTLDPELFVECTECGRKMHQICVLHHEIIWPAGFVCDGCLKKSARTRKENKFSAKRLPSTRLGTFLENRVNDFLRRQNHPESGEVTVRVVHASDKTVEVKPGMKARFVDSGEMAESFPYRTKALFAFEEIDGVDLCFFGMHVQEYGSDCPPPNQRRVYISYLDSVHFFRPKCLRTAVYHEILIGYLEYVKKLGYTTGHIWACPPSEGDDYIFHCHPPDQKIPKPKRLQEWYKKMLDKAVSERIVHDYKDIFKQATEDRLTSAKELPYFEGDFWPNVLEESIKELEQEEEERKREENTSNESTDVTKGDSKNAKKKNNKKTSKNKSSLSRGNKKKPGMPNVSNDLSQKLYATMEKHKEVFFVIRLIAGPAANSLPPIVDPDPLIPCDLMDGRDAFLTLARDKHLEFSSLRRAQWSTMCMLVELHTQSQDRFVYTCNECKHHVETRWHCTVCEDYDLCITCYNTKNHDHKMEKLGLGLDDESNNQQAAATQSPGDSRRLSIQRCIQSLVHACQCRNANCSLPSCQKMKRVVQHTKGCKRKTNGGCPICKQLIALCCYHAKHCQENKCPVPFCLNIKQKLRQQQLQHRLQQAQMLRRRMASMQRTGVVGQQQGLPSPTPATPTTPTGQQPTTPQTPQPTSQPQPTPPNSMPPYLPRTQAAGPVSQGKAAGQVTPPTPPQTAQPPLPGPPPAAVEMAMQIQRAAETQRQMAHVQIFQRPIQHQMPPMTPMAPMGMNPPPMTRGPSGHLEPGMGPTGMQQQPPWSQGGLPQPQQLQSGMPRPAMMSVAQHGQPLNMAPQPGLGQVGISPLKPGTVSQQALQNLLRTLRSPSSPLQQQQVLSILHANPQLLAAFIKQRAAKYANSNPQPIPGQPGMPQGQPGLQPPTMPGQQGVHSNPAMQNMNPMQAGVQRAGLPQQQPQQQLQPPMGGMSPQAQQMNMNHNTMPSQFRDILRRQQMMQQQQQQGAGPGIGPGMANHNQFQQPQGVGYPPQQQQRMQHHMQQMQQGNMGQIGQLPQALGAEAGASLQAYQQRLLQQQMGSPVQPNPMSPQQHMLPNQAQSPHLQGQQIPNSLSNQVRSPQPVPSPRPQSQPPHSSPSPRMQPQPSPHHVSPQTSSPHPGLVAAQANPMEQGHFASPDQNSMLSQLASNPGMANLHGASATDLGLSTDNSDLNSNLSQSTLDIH

Structure (SMILES)	pIC50
C=C1[C@@H](O)CC[C@@]2(C)[C@H]1C[C@]1(O)C(=O)CC[C@H]([C@H](C)CC[C@@H](C)C(C)C)[C@@]3(C)CC[C@]24O[C@@]413	< 5.00
C=C1[C@@H](O)CC[C@]2(C)C3=C4[C@@H](C[C@@H]12)C(=O)CC[C@H]([C@H](C)CC[C@@H](C)C(C)C)[C@@]4(C)CC3	5.48
C=C1[C@@H](O)CC[C@@]2(C)[C@H]1C[C@H]1C(=O)CC[C@H]([C@H](C)CC[C@@H](C)C(C)C)[C@@]3(C)CC[C@]24O[C@]143	5.06

The remaining lines, values ahead:

pIC50	Structure (SMILES)
< 5.00	C=C1[C@@H](O)CC[C@]2(C)[C@H]3CC[C@@]4(C)[C@]35O[C@]4([C@H](C)CC[C@@H](C)C(C)C)CCC(=O)[C@@H]5C[C@@H]12
< 5.00	C=C1[C@@H](O)CC[C@@]2(C)[C@H]1CC1=C3[C@@H]2CC[C@]3(C)[C@@H]([C@H](C)CC[C@@H](C)C(C)C)CCC1=O
6.30	C=C(C)[C@H](CC=C(C)C)C[C@]12C[C@H](CC=C(C)C)C(C)(C)[C@](CC=C(C)C)(C(=O)C(C(=O)c3ccc(O)c(O)c3)=C1O)C2=O
